Where “and” joins values, the source holds several entries; their conditions need not be identical. Equal values may be shown once.
Columns and labels:
[1] = HPLC analysis of test article vials and patch controls in air (mini-pig study); format: physicochemical
Experimental: Squaric acid dibutyl ester (SADBE) at 2% (w/v) concentration in dimethylsulfoxide (DMSO) was added to a skin patch for dermal dosing of SADBE to test for a delayed-type hypersensitivity response or other skin irritation. In the laboratories of Squarex HPLC analysis was conducted to analyze for SADBE content, for analysis of the dose formulation prepared by APS and to determine stability of the test article in the dermal patches during the application time and to test for residual SADBE in the dermal patches after 12 hours applied to the animals.
The skin patches consisted of a polymer backing layer similar to 3M 9916 polyester nonwoven backing layer with adhesive, 3M 9733 polyester film laminate barrier layer, and Precision Fabrics Group 0700-00010 polyester gauze layer. The gauze was heat sealed to the barrier layer. The gauze patch area was 1.53 cm^2.
(§1) The tubes of DMSO with patches were transported to the Squarex laboratory, shaken at 200 rpm for 30 minutes to overnight, and then the DMSO from each tube was placed in an injection vial and analyzed for SADBE content by HPLC on a C18 column with the program SADBE3-50 ul. SADBE elutes in this program at about 24.0 minutes and absorbs at 255 nm, so the area of the 24.0 min peak at 255 nm was used to quantify SADBE. The SADBE degradation product squaric acid monobutyl ester (SAMBE) was also quantified by 255 nm area under the curve at the elution time of 12.7 minutes.
The test article vials of 2%, 6%, and 18% SADBE dissolved in DMSO complied with specifications and had the predicted concentrations of SADBE at 24 hours after preparation.
The results indicated the SADBE was stable for more than 12 hours in the patches when not exposed to animal skin. There was no apparent loss of SADBE or conversion of SADBE to SAMBE.

[2] = system: common warts and alopecia areata; settings: solutions of 0.05% to 2.0% weight/volume, vehicle almost always acetone, applied repeatedly (Buckley et al., Lee et al.); cited from earlier work
[3] = system: guinea pig skin; assay: Cutaneous irritation (Draize, Primary Irritation Index) after SADBE dermal patch in guinea pig; format: in vivo; settings: for time to return to non-irritating levels post-dermal-application / time of peak cutaneous irritation: re-challenge
Experimental: Thirty (30) guinea pigs (15 female and 15 male) were utilized for this nonGLP study. Prior to and post dosing (dermal patches loaded with 20 microliters of 2, 6, or 18% SADBE drug solution) body weights, group food consumption, and Draize scoring for erythema, eschar formation, and edema at the dose site were be recorded. The dermal patch loaded with SADBE was applied to animals, and left in place for ˜12 hours plus/minus 1 hour. Following the ˜12 hour dosing period, patch sites was assessed by Draize scoring. […] After the 28 days assessment period, re challenge was performed, a second patch (not treated during the induction phase) was applied and assessed by Draize scoring.
Cutaneous irritation at the test site was observed and scored each day of the study by the Draize Scale for both Erythema & Eschar and Edema. The scale for each is in Tables 9 and 10, each on a 0-4 scale. The cumulative Erythema & Eschar and Edema score was the Primary Irritation Index score, which would therefore be on a 0-8 scale.
To assess the effect of the test article, SADBE (2%, 6%, and 18% in DMSO), on cutaneous skin irritation potential and sensitivity in guinea pig, Draize scoring system was used for dose site evaluation for erythema and eschar responses and for Edema. The test article (20 ul) was loaded on a dermal patch and applied to shaved guinea pig skin for 12 hrs (induction phase). The first dose site evaluation was performed for 30 days post application. A second dose was applied and dose site evaluation was also performed for approximately 5 weeks (challenge phase).
The Primary Irritation Index (pII) for each test article dose was calculated to assess the irritation potential. The Primary Irritation Index (pII) is the mean of the primary irritation score. The primary irritation score is the sum of the erythema/eschar score and the edema score, resulting in a maximal irritation potential of 8. The daily primary irritation index (pII) for each test article dose over the course of the study was calculated (FIG. 4). The pII is used to categorize the test article treatments as negligible to not irritating (0-0.9), slight (0.9-1.9), moderate (2-4.9) or severe (5-8) irritation potential. […] (FIG. 4.)

[4] = Residual SADBE and SAMBE in patches after 12 hours on guinea pigs; format: in vivo, guinea pig
Experimental: as §1, with “Patches were removed from the pigs at the indicated times and immediately the reservoir portion of the patch was cut out and placed in a 50 ml tube with 10 ml of DMSO. The tubes” for “The tubes”, “rpm for 1 hour or more, and then” for “rpm for 30 minutes to overnight, and then”

[5] = 2% patch control, 20 ul, >12 hours in air
[6] = 2% vial, SADBE in DMSO, 24 hours after preparation
[7] = 6% patch control, 20 ul, >12 hours in air
[8] = 6% vial, SADBE in DMSO, 24 hours after preparation
[9] = 18% vial, SADBE in DMSO, 24 hours after preparation

CCCCOc1c(OCCCC)c(=O)c1=O [SADBE, squaric acid dibutyl ester]
% of expected SADBE [1, 5]: 97.7%
SAMBE as percent of SADBE [1, 5]: 0.86%
% of expected SADBE [1, 6]: 100.8%
SAMBE as percent of SADBE [1, 6]: 0.88%
% of expected SADBE [1, 7]: 96.8%
SAMBE as percent of SADBE [1, 7]: 0.96%
% of expected SADBE [1, 8]: 97.5%
SAMBE as percent of SADBE [1, 8]: 0.96%
% of expected SADBE [1, 9]: 104.4%
SAMBE as percent of SADBE [1, 9]: 1.00%
time SADBE was stable in the patches ([1]; patches not exposed to animal skin, no apparent loss or conversion to SAMBE): more than 12 hours
treatment of common warts and alopecia areata [2]: used successfully
irritation category by Primary Irritation Index (pII) ([3]; 2% SADBE, 20 ul patch, 12 h, first dose): slightly irritating
duration of slight cutaneous irritation ([3]; 2% SADBE, induction): > 17 days
time to return to non-irritating levels post-dermal-application ([3]; 2% SADBE): ~9 days
irritation category by Primary Irritation Index (pII) ([3]; 2% SADBE, re-challenge (second dose)): moderately irritating
duration of slight to moderate cutaneous irritation ([3]; 2% SADBE, re-challenge at naive site): ~5 days
irritation category by Primary Irritation Index (pII) ([3]; 6% SADBE, 20 ul patch, 12 h, first dose): moderately irritating
duration of moderate cutaneous irritation ([3]; 6% SADBE, induction): ~18 days
time to return to slight irritation and not irritating levels ([3]; 6% SADBE, induction): ~23 days
time of peak cutaneous irritation ([3]; 6% SADBE): ~5 days
time to return to non-irritating levels post-dermal-application ([3]; 6% SADBE): ~14 days
irritation category by Primary Irritation Index (pII) ([3]; 6% SADBE, re-challenge (second dose)): moderately irritating
irritation category by Primary Irritation Index (pII) ([3]; 18% SADBE, 20 ul patch, 12 h, first dose): severely irritating
duration of moderate to severe cutaneous irritation ([3]; 18% SADBE, induction): ~21 days
time to return to slight irritation and not irritating levels post-dosing ([3]; 18% SADBE, induction): ~27 days
time of peak cutaneous irritation ([3]; 18% SADBE): ~8 days
time to return to non-irritating levels post-dermal-application ([3]; 18% SADBE): ~19 days
irritation category by Primary Irritation Index (pII) ([3]; 18% SADBE, re-challenge (second dose)): moderately irritating
SADBE as % of expected (remaining in patch) ([4]; 2% patches, range of 10 patches): 0.0-1.3%
SADBE as % of expected (remaining in patch) ([4]; 6% patches, average of 10 patches): 11% and 10.67%
SADBE as % of expected (remaining in patch) ([4]; 6% patches, range of 10 patches): 2.7-22.7%
SADBE as % of expected (remaining in patch) ([4]; 18% patches, average of 10 patches): 34% and 34.13%
SADBE as % of expected (remaining in patch) ([4]; 18% patches, range of 10 patches): 23.0-46.5%

From patent US20210393932A1, “DERMAL PATCHES AND GLASS SWABS FOR APPLICATION OF TOPICAL IMMUNOSENSITIZERS” (Squarex, LLC, priority 2020, published 2021)
